# Reference: ChEMBL document CHEMBL1151728 (J Med Chem, 2008)
# Calls of active or inactive are those of the source. The rule behind the calls is not given here.
# How the values were obtained:
# Butyrylcholinesterase = Butyrylcholinesterase (Equus caballus, UniProt Q9N1N9)
# Description: Inhibition of BuChE from equine serum
# Acetylcholinesterase = Acetylcholinesterase (Electrophorus electricus, UniProt O42275)
# Description: Inhibition of Electric eel AChE
# Rattus norvegicus [1] = experiment: Effect on scopolamine-induced memory impairment in iv dosed Wistar assessed as decrease in number of errors during exploration of the bait at the end of the eight-arm radial maze for 5 days; assay type: functional, organism-based
# Rattus norvegicus [2] = experiment: Effect on scopolamine-induced memory impairment in iv dosed Wistar rat assessed as decrease in time spent for exploration of the bait at the end of the eight-arm radial maze for 5 days; assay type: functional, organism-based
# Rattus norvegicus [3] = organism: Rattus norvegicus; experiment: Hepatotoxicity in Wistar rat liver assessed as histopathological changes; assay type: toxicity, organism-based; settings: in vivo
# Sequence of Butyrylcholinesterase (Q9N1N9 whole entry): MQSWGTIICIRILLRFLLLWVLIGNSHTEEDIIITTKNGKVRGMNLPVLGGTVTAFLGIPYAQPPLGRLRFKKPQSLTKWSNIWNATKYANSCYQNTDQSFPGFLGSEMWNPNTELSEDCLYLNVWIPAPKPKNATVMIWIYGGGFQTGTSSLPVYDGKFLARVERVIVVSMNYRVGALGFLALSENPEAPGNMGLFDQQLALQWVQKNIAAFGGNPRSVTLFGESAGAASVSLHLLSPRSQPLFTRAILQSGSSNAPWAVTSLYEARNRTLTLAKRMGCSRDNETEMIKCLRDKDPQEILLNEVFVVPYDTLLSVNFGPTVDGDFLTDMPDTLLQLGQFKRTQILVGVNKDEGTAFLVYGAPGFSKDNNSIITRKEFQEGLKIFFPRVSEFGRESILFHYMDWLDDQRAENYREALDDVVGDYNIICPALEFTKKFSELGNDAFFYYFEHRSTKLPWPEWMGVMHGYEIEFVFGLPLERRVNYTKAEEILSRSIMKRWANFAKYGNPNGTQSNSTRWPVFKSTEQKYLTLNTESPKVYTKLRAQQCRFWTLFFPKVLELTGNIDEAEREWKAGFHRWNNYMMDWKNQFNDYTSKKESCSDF
# Sequence of Acetylcholinesterase (O42275 whole entry): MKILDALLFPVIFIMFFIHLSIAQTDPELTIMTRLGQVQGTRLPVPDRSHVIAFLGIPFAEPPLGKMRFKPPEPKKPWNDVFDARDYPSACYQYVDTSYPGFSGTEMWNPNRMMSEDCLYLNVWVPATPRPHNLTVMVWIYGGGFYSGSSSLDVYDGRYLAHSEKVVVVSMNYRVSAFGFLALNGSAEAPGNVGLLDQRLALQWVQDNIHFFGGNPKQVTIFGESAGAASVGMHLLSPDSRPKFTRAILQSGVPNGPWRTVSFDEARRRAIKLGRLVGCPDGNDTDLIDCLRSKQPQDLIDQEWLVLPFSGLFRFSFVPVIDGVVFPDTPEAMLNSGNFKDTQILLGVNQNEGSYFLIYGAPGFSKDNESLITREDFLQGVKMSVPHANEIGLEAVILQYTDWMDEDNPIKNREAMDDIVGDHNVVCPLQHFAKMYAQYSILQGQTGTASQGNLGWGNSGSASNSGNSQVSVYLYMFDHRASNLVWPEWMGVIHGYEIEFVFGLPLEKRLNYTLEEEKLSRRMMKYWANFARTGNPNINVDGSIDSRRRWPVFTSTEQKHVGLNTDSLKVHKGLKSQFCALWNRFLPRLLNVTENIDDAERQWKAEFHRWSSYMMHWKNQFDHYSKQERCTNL
Structure (SMILES),IC50 (Butyrylcholinesterase) [nM],IC50 (Acetylcholinesterase) [nM],Activity (Rattus norvegicus [1]),Activity (Rattus norvegicus [2]),Activity (Rattus norvegicus [3])
O=[N+]([O-])OCCCNCCCCCNc1c2c(nc3ccccc13)CCCC2,14.3,15.4,,,
O=[N+]([O-])OCCCNCCNc1c2c(nc3ccccc13)CCCC2,18.1,13,,,
O=[N+]([O-])OCCNCCCCCNc1c2c(nc3ccccc13)CCCC2,13.3,21.6,,,
O=[N+]([O-])OCCCNCCCCCCCCNc1c2c(nc3ccccc13)CCCC2,14.8,17.1,,,
O=C(CO[N+](=O)[O-])NCCCNc1c2c(nc3ccccc13)CCCC2,13.5,28.2,Active,Active,
O=[N+]([O-])OCCCCCCNCCCCCCCCNc1c2c(nc3ccccc13)CCCC2,12.9,19.6,,,
O=[N+]([O-])OCCNCCCCCCCCNc1c2c(nc3ccccc13)CCCC2,17,7.7,,,
O=[N+]([O-])OCCCNCCCCNc1c2c(nc3ccccc13)CCCC2,9.9,5.6,Active,Active,Non-toxic
O=[N+]([O-])OCCNCCNc1c2c(nc3ccccc13)CCCC2,7.3,9.1,Active,Active,
CCCNCCCCNc1c2c(nc3ccccc13)CCCC2,7.2,23.4,inactive,inactive,
